Among the test systems are XF 498 CNS; DMS 273 small cell lung; SNB-78 CNS; KM20L2 colon; DMS 114 small cell lung; M19-MEL melanoma; HOP-18 NSCLC; MDA-N; RXF-631 renal.
What all share (test): NCI tumour cell line growth inhibition, 48 h

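All cell lines were grown in 96-well plates and treated with compound for 48 hours. GI50 is the concentration that inhibits growth by half. The concentration for full growth arrest is given as TGI.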

`CC(C)OP(=O)(OC(C)C)/C(N)=N/Nc1ccc([N+](=O)[O-])cc1`: the TGI with XF 498 CNS, in the assay on DMS 273 small cell lung, with SNB-78 CNS, in the assay on KM20L2 colon, in the assay with DMS 114 small cell lung and in the assay on M19-MEL melanoma was more than 100 µM in each case.

Regarding `C#Cc1c(C)c(/C=C/C(C)=C/C(=O)OC)n(C)c1C`, the TGI in the assay with XF 498 CNS, with DMS 273 small cell lung, with SNB-78 CNS, in the assay on KM20L2 colon, with DMS 114 small cell lung and in the assay on HOP-18 NSCLC was more than 100 µM in each case. The TGI with M19-MEL melanoma was more than 100 µM.

Regarding `NN=C(CC(O)(C(F)(F)Cl)C(F)(F)Cl)CC(O)(C(F)(F)Cl)C(F)(F)Cl`, the TGI with MDA-N was more than 10 µM.

As for `Cc1ccc(S(=O)(=O)c2ccccc2[N+](=O)[O-])cc1`, the TGI in the assay on XF 498 CNS, in the assay with DMS 273 small cell lung, with SNB-78 CNS, with KM20L2 colon, with DMS 114 small cell lung and in the assay on RXF-631 renal was more than 100 µM throughout. In addition, the TGI with M19-MEL melanoma is more than 100 µM.

In the case of `O=C1/C(=C/c2ccccc2)CN(C(=O)CCN2CCCC2)C/C1=C\c1ccccc1`, the TGI came out at 16.8 µM with XF 498 CNS; 3.58 µM in the assay on DMS 273 small cell lung; 16.5 µM in the assay with SNB-78 CNS; 3.91 µM in the assay with KM20L2 colon; 1.46 µM in the assay on MDA-N; 4.66 µM in the assay with DMS 114 small cell lung. Moreover, the values for the TGI with HOP-18 NSCLC, in the assay on RXF-631 renal and with M19-MEL melanoma were 9.09 µM, 13.2 µM and 3.79 µM, respectively.

Take `O=C(O)CCNCCCCNCCC(=O)O`: the TGI in the assay on XF 498 CNS, in the assay with DMS 273 small cell lung, in the assay with KM20L2 colon and in the assay on HOP-18 NSCLC was more than 100 µM each time.

As to `O=c1[nH]c2ccccc2n1CCCN1CCC(n2c(=O)[nH]c3cc(Cl)ccc32)CC1`, the TGI in the assay with MDA-N is 29.4 µM.

Regarding `C=CCO/N=C(\OC(=O)c1ccc([N+](=O)[O-])cc1)c1ccccc1`, the TGI in the assay on DMS 273 small cell lung, in the assay on SNB-78 CNS, in the assay on DMS 114 small cell lung, with HOP-18 NSCLC, in the assay with RXF-631 renal and with M19-MEL melanoma was more than 100 µM throughout.

For the compound `COc1ccc(C(=O)C(CC2C(=O)NC(=O)NC2=O)c2ccc(OC)cc2)cc1` (centres undefined), the TGI in the assay on XF 498 CNS, in the assay on DMS 273 small cell lung, with SNB-78 CNS, in the assay with KM20L2 colon, in the assay on DMS 114 small cell lung and in the assay with HOP-18 NSCLC was more than 100 µM throughout. Further, the TGI in the assay with M19-MEL melanoma is more than 100 µM.

Take `c1ccc2c(c1)oc1ccc3nsnc3c12`: the TGI in the assay on DMS 273 small cell lung, in the assay with KM20L2 colon, in the assay with DMS 114 small cell lung, in the assay on HOP-18 NSCLC, in the assay with RXF-631 renal and in the assay with M19-MEL melanoma was more than 100 µM each time.

As to `C=CCC1=C(C)C[C@@H]2CCC(=O)C=C12`, the TGI in the assay on DMS 273 small cell lung, in the assay with SNB-78 CNS, in the assay with DMS 114 small cell lung, with RXF-631 renal and with M19-MEL melanoma was more than 100 µM each time.

For the compound `COC(=O)c1c2c(cc3c1CC1(Cc4cc5c(c(C(C)=O)c4C1)CCC5)C3)CCC2` (centres undefined), the TGI with XF 498 CNS, with DMS 273 small cell lung, in the assay with SNB-78 CNS, in the assay with DMS 114 small cell lung, in the assay on HOP-18 NSCLC and in the assay on M19-MEL melanoma was more than 100 µM each time.

Take `Cc1cc(N(CCC#N)CCC#N)ccc1N=Nc1ccc(Br)cc1`: the TGI in the assay on XF 498 CNS was 13.3 µM; with DMS 273 small cell lung it was more than 31.6 µM; in the assay with SNB-78 CNS, more than 65.8 µM; in the assay on KM20L2 colon it was more than 100 µM; in the assay with DMS 114 small cell lung, more than 71.3 µM; with HOP-18 NSCLC, more than 100 µM. In addition, the figures for the TGI in the assay on RXF-631 renal and in the assay with M19-MEL melanoma were 25.1 µM and more than 100 µM, respectively.

For the compound `O=C(Nn1c(-c2ccccc2)nc2ccccc2c1=O)c1ccccc1O`, in the assay with MDA-N, the TGI was more than 100 µM.

As to `C1CC[N-]CC1.CC(=N\O)/C(C)=N/O.CC(=N\O)/C(C)=N/O.OC1[CH-]CCCC1.[Co+2]`, in the assay on MDA-N, the GI50 is 40.9 µM and the TGI was more than 100 µM.

Consider `Cc1cccc(C)c1NC(=O)CCc1nc(=S)[nH][nH]1`, for which the TGI in the assay with XF 498 CNS, in the assay with SNB-78 CNS, with KM20L2 colon, with DMS 114 small cell lung, in the assay on RXF-631 renal and in the assay on M19-MEL melanoma was more than 100 µM throughout.

In the case of `CC1=NN(C(=O)c2ccc(Cl)cc2)C(=O)/C1=C/c1ccccc1O`, the TGI with XF 498 CNS, in the assay on SNB-78 CNS, with KM20L2 colon, in the assay on DMS 114 small cell lung and in the assay on M19-MEL melanoma was more than 100 µM in each case.

Consider `CCOC(=O)N1CCc2cc(OC)c(OC)cc2/C1=C\c1ccc(OC)c(OC)c1`, for which the TGI in the assay with XF 498 CNS was more than 10 µM; in the assay on DMS 273 small cell lung it was 61.9 µM; in the assay with SNB-78 CNS, more than 100 µM; in the assay with KM20L2 colon, 65.4 µM; in the assay with DMS 114 small cell lung it was more than 100 µM; in the assay with HOP-18 NSCLC, 90.7 µM. This compound had a TGI in the assay with M19-MEL melanoma of 63.3 µM.

As to `COC(=O)CC(NC(=O)OCc1ccccc1)C(C(=O)OCc1ccccc1)C(C)(OC)OC` (centres undefined), the TGI in the assay with XF 498 CNS was 37.3 µM; in the assay on DMS 273 small cell lung, more than 100 µM; in the assay with KM20L2 colon it was more than 100 µM; in the assay on DMS 114 small cell lung, 91.7 µM; in the assay on M19-MEL melanoma it was more than 100 µM.

In the case of `O=C1C=CC(=O)c2c(O)c(NCCOCCO)c(Cl)c(O)c21`, the TGI with DMS 273 small cell lung was found to be 14.8 µM; in the assay on SNB-78 CNS, 30.2 µM; in the assay with HOP-18 NSCLC, 29.1 µM; with M19-MEL melanoma, 3.22 µM.

In the case of `CC1CCSC(N(C(=O)N(C)c2ccccc2)c2ccccc2)=N1` (centres undefined), the TGI with XF 498 CNS, with DMS 273 small cell lung, in the assay with SNB-78 CNS, in the assay on KM20L2 colon, in the assay on DMS 114 small cell lung and in the assay with M19-MEL melanoma was more than 100 µM in each case.

Values taken from PubChem BioAssay (NCI).
